Measured values published in patent US20230165252A1, “ACTIVE COMPOUND COMBINATIONS” (Bayer Aktiengesellschaft, priority 2020, published 2023).
Read-outs that look alike come from different tables or passages of the source.

Tests used:
Format in all cases: cell-based
Parastagonospora nodorum = assay: in vitro-Test with Parastagonospora nodorum (microtiter growth inhibition); conditions: Parastagonospora nodorum, compound alone, read-out: Efficacy %
Outline: (§1)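 Steps: dry the compound (methanol with alkylaryl-polyglycol-ether) in each well; add potato dextrose liquid medium containing fungal spores or mycelium; record 620 nm extinction; incubate at 20° C. and 85% relative humidity; re-measure photometrically after 3-5 days. Efficacy in % against untreated wells.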

[1] = tested on: Ustilago segetum var. avenae; assay: in vitro-Test with Ustilago segetum var. avenae (microtiter growth inhibition); conditions: single compound, read-out: Efficacy %
Outline: as §1

Cercospora beticola = assay: in vitro-Test with Cercospora beticola (microtiter growth inhibition); conditions: Cercospora beticola, read-out: Efficacy %
Outline: as §1

Alternaria alternate = assay: in vitro-Test with Alternaria alternate (microtiter growth inhibition); conditions: Alternaria, applied alone, read-out: Efficacy
Outline: as §1

Fusarium culmorum = assay: in vitro-Test with Fusarium culmorum (microtiter growth inhibition); conditions: Fusarium culmorum, read-out: Efficacy
Outline: as §1

Diaporthe citri = assay: in vitro-Test with Diaporthe citri (microtiter growth inhibition); conditions: Diaporthe citri, read-out: Efficacy; for inhibition of growth at 0.02 ppm: 0.020 ppm
Outline: as §1

[2] = tested on: Colletotrichum lindemuthianum; assay: in vitro-Test with Colletotrichum lindemuthianum (microtiter growth inhibition); conditions: Colletotrichum lindemuthianum, read-out: Efficacy %
Procedure: The degree of efficacy expressed in % is denoted: 0% means an efficacy, which corresponds to that of the control, while an efficacy of 100% means that no disease is observed.
If the actual fungicidal activity exceeds the calculated value, then the activity of the combination is super-additive, i.e. a synergistic effect exists. In this case, the efficacy, which was actually observed, must be greater than the value for the expected efficacy (E), that was calculated from the abovementioned formula.
Example: In Vitro-Test with Fungal Microorganisms
Wells of 96-well microtiter plates are filled with 10 μl of a preparation of test compound or compound combination in methanol+emulsifier alkylaryl-polyglycol-ether. Thereafter, the solvent is evaporated in a hood. At the next step, 100 μl of liquid potato dextrose medium is given into each well, that has been amended with an appropriate concentration of spores or mycelium suspension of the test fungus.
With the aid of a photometer, the extinction in all wells is measured at the wavelength of 620 nm.
The microtiter plates are incubated at 20° C. and 85% relative humidity. The inhibition of growth is determined again photometrically 3-5 days after the application. Efficacy is calculated in relation to the untreated control, 0% efficacy means fungal growth as high as in untreated control while 100% efficacy means no fungal growth is measured.

Cordana musae = assay: in vitro-Test with Cordana musae (microtiter growth inhibition); conditions: Neocordana musae, single substance, read-out: Efficacy
Outline: as §1

SMILES: Cc1ccc(C(F)(F)CNC(=O)c2c(Oc3cccc(C4CC4)c3F)nnc(Cl)c2C)cc1C [Compound I-749, 6-chloro-3-(3-cyclopropyl-2-fluorophenoxy)-N-[2-(3,4-dimethylphenyl)-2,2-difluoroethyl]-5-methylpyridazine-4-carboxamide]
- inhibition of growth at 0.004 ppm (Parastagonospora nodorum; 0.004 ppm): 0%
- inhibition of growth at 0.02 ppm (Parastagonospora nodorum; 0.020 ppm): 0%
- inhibition of growth at 0.1 ppm (Parastagonospora nodorum; 0.1 ppm): 92%
- inhibition of growth at 0.5 ppm (Parastagonospora nodorum; 0.5 ppm): 100%
- inhibition of growth at 0.004 ppm ([1]; 0.004 ppm): 1%
- inhibition of growth at 0.02 ppm ([1]; 0.020 ppm): 0%
- inhibition of growth at 0.1 ppm ([1]; 0.1 ppm): 0%
- inhibition of growth at 0.5 ppm ([1]; 0.5 ppm): 0%
- inhibition of growth at 0.004 ppm (Cercospora beticola; alone, 0.004 ppm): 0%
- inhibition of growth at 0.02 ppm (Cercospora beticola; alone, 0.020 ppm): 0%
- inhibition of growth at 0.1 ppm (Cercospora beticola; alone, 0.1 ppm): 8%
- inhibition of growth at 0.5 ppm (Cercospora beticola; alone, 0.5 ppm): 22%
- inhibition of growth at 0.004 ppm (Cercospora beticola; applied alone at 0.004 ppm): 0%
- inhibition of growth at 0.02 ppm (Cercospora beticola; applied alone at 0.020 ppm): 0%
- inhibition of growth at 0.1 ppm (Cercospora beticola; applied alone at 0.1 ppm): 8%
- inhibition of growth at 0.5 ppm (Cercospora beticola; applied alone at 0.5 ppm): 22%
- inhibition of growth at 0.004 ppm (Alternaria alternate; 0.004 ppm): 0%
- inhibition of growth at 0.02 ppm (Alternaria alternate; 0.020 ppm): 14%
- inhibition of growth at 0.1 ppm (Alternaria alternate; 0.1 ppm): 24%
- inhibition of growth at 0.5 ppm (Alternaria alternate; 0.5 ppm): 100%
- inhibition of growth at 0.004 ppm (Fusarium culmorum; 0.004 ppm): 0%
- inhibition of growth at 0.02 ppm (Fusarium culmorum; 0.020 ppm): 10%
- inhibition of growth at 0.1 ppm (Fusarium culmorum; 0.1 ppm): 11%
- inhibition of growth at 0.5 ppm (Fusarium culmorum; 0.5 ppm): 18%
- inhibition of growth at 0.004 ppm (Diaporthe citri): 0%
- inhibition of growth at 0.02 ppm (Diaporthe citri): 0%
- inhibition of growth at 0.1 ppm (Diaporthe citri): 0%
- inhibition of growth at 0.5 ppm (Diaporthe citri): 100%
- inhibition of growth at 0.004 ppm (Diaporthe citri; applied alone): 0%
- inhibition of growth at 0.02 ppm (Diaporthe citri; applied alone): 0%
- inhibition of growth at 0.1 ppm (Diaporthe citri; applied alone): 0%
- inhibition of growth at 0.5 ppm (Diaporthe citri; applied alone): 100%
- inhibition of growth at 0.004 ppm ([2]; applied alone at 0.004 ppm): 1%
- inhibition of growth at 0.02 ppm ([2]; applied alone at 0.020 ppm): 19%
- inhibition of growth at 0.1 ppm ([2]; applied alone at 0.1 ppm): 100%
- inhibition of growth at 0.5 ppm ([2]; applied alone at 0.5 ppm): 100%
- inhibition of growth at 0.004 ppm (Cordana musae; 0.004 ppm): 0%
- inhibition of growth at 0.02 ppm (Cordana musae; 0.020 ppm): 64%
- inhibition of growth at 0.1 ppm (Cordana musae; 0.1 ppm): 100%
- inhibition of growth at 0.5 ppm (Cordana musae; 0.5 ppm): 100%
